The numbers were not newly measured in patent US11602517B2, “Pharmaceutical composition, comprising polmacoxib and pregabalin, for treatment of pain” (CRYSTALGENOMICS, INC., priority 2018, dated 2023), which cites them from elsewhere.

Some results are limits rather than exact numbers.

For series [1] the following is noted: white or light yellow crystalline powder.

Consider `CC(C)C[C@H](CN)CC(=O)O` [Pregabalin, (S)-(+)-3-(aminomethyl)-5-methyl-hexanoic acid], for which the average absorption time (absorbed from the upper part of the small intestine) is 6 h. Also, the “time to reach maximum blood concentration” value (absorption in the body) is at most 1.3 h. In addition, the bioavailability result (in vivo) is on record as “about 90%”. Moreover, the solubility in water result in series [1] is “soluble in water”.
